US11952384B2, “Anti-tumor compound and preparation method and use thereof” (DUALITY BIOLOGICS (SUZHOU) CO., LTD., priority 2020, dated 2024)
Like-named read-outs stand apart in the source and are kept apart here.

Experiments:
[1] = system: JIMT-1 cells; test: Inhibition of in vitro proliferation of tumor cells by compounds (CTG, 6 days); type: cell-based; conditions: small molecule fragments, 6 days of culture, CTG, read-out: JIMT-1 IC50
Method in brief: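 JIMT-1 cells in RPMI-1640/10% FBS plated at 6×10^4 cells/mL, left 18 h, then exposed to 8 compound concentrations (0.1–300 nM) in duplicate for 6 days at 37° C. Viability by CellTiter-Glo luminescence; IC50 derived.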

[2] = system: NCI-N87 cells; test: as above; type: cell-based; conditions: small molecule fragments, 6 days of culture, CTG, read-out: NCI-N87 IC50
Method in brief: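 NCI-N87 cells in RPMI-1640 with 10% FBS, plated and allowed 18 h attachment, then exposed in duplicate to 8 concentrations from 300 nM to 0.1 nM for 6 days at 37 °C, 5% CO2. Viability read by CellTiter-Glo luminescence; IC50 derived from the dose-response.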

[3] = molecular target: T1, P-gp (Homo sapiens, UniProt P08183); test: Study on transporter substrates in Caco-2 cell model; type: in vitro ADME; conditions: Caco-2
T1 construct: endogenous in cells; host or cells: Caco-2
Method: The resistance of each well was recorded. […] 2. […] The plate was vortexed for 10 min. The samples were centrifuged. […] HBSS was added to the basolateral compartment. […] 3. Data Analysis
Data were calculated using Microsoft Excel.

[4] = molecular target: T2, BCRP (Homo sapiens, UniProt Q9UNQ0); conditions: Caco-2
T2 sequence (Q9UNQ0 1-655): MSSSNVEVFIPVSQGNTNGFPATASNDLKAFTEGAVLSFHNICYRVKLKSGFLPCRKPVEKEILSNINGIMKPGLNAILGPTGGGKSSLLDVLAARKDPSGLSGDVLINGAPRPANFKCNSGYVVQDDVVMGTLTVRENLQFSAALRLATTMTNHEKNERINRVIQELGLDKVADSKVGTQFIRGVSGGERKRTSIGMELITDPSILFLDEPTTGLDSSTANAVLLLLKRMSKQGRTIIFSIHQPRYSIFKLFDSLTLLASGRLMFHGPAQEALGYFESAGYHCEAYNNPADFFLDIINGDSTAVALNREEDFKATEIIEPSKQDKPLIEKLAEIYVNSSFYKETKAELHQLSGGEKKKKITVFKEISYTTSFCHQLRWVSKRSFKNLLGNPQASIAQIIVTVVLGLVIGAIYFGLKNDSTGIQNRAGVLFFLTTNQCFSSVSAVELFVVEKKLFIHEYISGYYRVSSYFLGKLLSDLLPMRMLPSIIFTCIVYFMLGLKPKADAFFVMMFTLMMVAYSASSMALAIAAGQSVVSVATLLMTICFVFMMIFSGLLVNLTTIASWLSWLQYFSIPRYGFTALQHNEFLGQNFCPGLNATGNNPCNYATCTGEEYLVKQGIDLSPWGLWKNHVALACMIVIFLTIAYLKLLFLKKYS

[5] = molecular target: T2, BCRP; test: Study on transporter substrates in Caco-2 cell model; conditions: Caco-2; for efflux ratio at 2 h / recovery at 2 h: human; for efflux ratio at 2 h: Caco-2, Efflux ratio
[6] = Table 2 (untitled), Test Example 2.2
[7] = Homo sapiens, JIMT-1, 144 h, Table 1, Test Example 2.1
[8] = Homo sapiens, NCI-N87, 144 h, Table 1, Test Example 2.1
[9] = Homo sapiens, JIMT-1, 144 h, Table 2 (untitled), Test Example 2.2
[10] = Homo sapiens, NCI-N87, 144 h, Table 2 (untitled), Test Example 2.2
[11] = Caco-2, Recovery rate (%) AP-BL, KO143 −
[12] = Caco-2, Recovery rate (%) BL-AP, KO143 −
[13] = Caco-2, with KO143 (concentration not stated), Recovery rate (%) AP-BL, KO143 +
[14] = Caco-2, with KO143 (concentration not stated), Recovery rate (%) BL-AP, KO143 +

T1 sequence (P08183 whole entry): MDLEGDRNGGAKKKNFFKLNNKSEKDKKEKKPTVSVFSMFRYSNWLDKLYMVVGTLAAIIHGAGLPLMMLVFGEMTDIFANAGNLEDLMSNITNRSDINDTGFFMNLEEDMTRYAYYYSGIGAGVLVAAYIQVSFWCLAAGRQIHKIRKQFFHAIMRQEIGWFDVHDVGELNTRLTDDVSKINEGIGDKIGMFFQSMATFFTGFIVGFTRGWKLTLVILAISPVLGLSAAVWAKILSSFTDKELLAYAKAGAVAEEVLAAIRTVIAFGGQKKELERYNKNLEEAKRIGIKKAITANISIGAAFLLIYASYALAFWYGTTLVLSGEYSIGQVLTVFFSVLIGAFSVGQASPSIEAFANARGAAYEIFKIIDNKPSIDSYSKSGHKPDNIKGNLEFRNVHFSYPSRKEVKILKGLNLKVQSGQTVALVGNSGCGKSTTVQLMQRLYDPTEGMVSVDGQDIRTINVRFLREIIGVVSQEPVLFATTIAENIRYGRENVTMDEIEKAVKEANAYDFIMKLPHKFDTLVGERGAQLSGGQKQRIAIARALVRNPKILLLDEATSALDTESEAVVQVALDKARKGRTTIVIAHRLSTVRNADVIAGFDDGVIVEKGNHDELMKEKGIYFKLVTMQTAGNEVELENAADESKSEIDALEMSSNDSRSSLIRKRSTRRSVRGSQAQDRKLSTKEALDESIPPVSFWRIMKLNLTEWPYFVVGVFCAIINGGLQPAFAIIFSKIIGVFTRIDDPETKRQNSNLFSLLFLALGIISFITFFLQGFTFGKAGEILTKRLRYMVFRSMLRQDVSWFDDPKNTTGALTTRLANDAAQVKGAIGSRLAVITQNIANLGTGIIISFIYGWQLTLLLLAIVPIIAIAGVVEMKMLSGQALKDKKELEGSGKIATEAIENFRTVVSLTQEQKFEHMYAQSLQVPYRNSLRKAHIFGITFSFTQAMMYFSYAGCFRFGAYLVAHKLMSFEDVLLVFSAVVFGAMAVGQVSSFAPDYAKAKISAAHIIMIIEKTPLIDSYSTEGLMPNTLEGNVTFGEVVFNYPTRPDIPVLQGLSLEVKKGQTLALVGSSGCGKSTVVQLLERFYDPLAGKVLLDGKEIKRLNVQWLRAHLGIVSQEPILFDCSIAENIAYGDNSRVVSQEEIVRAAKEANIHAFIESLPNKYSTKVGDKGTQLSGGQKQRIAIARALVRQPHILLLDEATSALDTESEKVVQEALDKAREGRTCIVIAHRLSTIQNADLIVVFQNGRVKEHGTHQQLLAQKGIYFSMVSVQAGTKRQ

SMILES | IC50 ([1]; Table 1, Test Example 2.1) | IC50 [1, 6] | P-gp substrate [3] | Papp (A-B) (10^−6, cm/s) [4] | Papp (B-A) (10^−6, cm/s) [4] | Recovery rate (%) AP-BL ([5]; KO143 −) | IC50 [1, 7] | IC50 [2, 8] | IC50 [1, 9] | IC50 [2, 10] | efflux ratio at 2 h ([5]; KO143 −) | recovery at 2 h [5, 11] | recovery at 2 h [5, 12] | recovery at 2 h [5, 13] | recovery at 2 h [5, 14] | other results
CC[C@@]1(O)C(=O)OCc2c1cc1n(c2=O)Cc2c-1nc1cc(F)c(C)c3c1c2[C@@H](NC(=O)C1CCC(O)CC1)CC3 (single isomer, unassigned) [P-II-2] | 17 nM | 17.2 nM | neither transporter P-gp substrates nor transporter BCRP substrates | 0.07 10^−6, cm/s | 1.70 10^−6, cm/s | 59.32% | – | – | – | – | – | – | – | – | – | IC50 ([2]; Table 1, Test Example 2.1): 22.1 nM; IC50 [2, 6]: 22.1 nM; Recovery rate (%) AP-BL ([5]; KO143 +): 62.42%; Recovery rate (%) BL-AP ([5]; KO143 +): 62.86%; Efflux ratio ([5]; KO143 −): 30.08; Recovery rate (%) BL-AP ([5]; KO143 −): 58.51%
CC[C@@]1(O)C(=O)OCc2c1cc1n(c2=O)Cc2c-1nc1cc(F)c(C)c3c1c2[C@@H](NC(=O)C[C@@H](C)O)CC3 [P-III-20, (R)—N-((1S,9S)-9-ethyl-5-fluoro-9-hydroxy-4-methyl-10,13-dioxo-2,3,9,10,13,15-hexahydro-1H,12H-benzo[de]pyrano[3′,4′: 6,7]indolizino[1,2-b]quinolin-1-yl)-3-hydroxybutanamide] | – | – | – | – | – | – | 4.35 nM | 5.89 nM | – | – | – | – | – | – | – | IC50 ([1]; Homo sapiens, JIMT-1, 144 h, Table 3, Test Example 2.3): 4.35 nM; IC50 ([2]; Homo sapiens, NCI-N87, 144 h, Table 3, Test Example 2.3): 5.89 nM; IC50 ([2]; Homo sapiens, NCI-N87, 144 h, Table 4, Test Example 2.4): 5.9 nM
CC[C@@]1(O)C(=O)OCc2c1cc1n(c2=O)Cc2c-1nc1cc(F)c(C)c3c1c2[C@@H](NC(=O)[C@H]1C[C@H](O)C1)CC3 [P-II-4, (1r,3S)-N-((1S,9S)-9-ethyl-5-fluoro-9-hydroxy-4-methyl-10,13-dioxo-2,3,9,10,13,15-hexahydro-1H,12H-benzo[de]pyrano[3′,4′:6,7]indolizino[1,2-b]quinolin-1-yl)-3-hydroxycyclobutane-1-carboxamide] | – | – | neither transporter P-gp substrates nor transporter BCRP substrates | 0.06 10^−6, cm/s | 1.65 10^−6, cm/s | – | 6.64 nM | 8.03 nM | 6.6 nM | 8.03 nM | 36.1 | 63.8% | 64% | 65% | 63% | –
CC[C@@]1(O)C(=O)OCc2c1cc1n(c2=O)Cc2c-1nc1cc(F)c(C)c3c1c2[C@@H](NC(=O)[C@H]1C[C@@H](O)C1)CC3 [P-II-3, (1s,3R)-N-((1S,9S)-9-ethyl-5-fluoro-9-hydroxy-4-methyl-10,13-dioxo-2,3,9,10,13,15-hexahydro-1H,12H-benzo[de]pyrano[3′,4′:6,7]indolizino[1,2-b]quinolin-1-yl)-3-hydroxycyclobutane-1-carboxamide] | – | – | neither transporter P-gp substrates nor transporter BCRP substrates | 0.20 10^−6, cm/s | 5.52 10^−6, cm/s | – | 5 nM | 9.56 nM | 5 nM | 9.56 nM | 28.7 | 80.9% | 77.5% | 76.9% | 76.5% | –
CC[C@@]1(O)C(=O)OCc2c1cc1n(c2=O)Cc2c-1nc1cc(F)c(C)c3c1c2[C@@H](NC(=O)C1CCC(O)CC1)CC3 (single isomer, unassigned) [P-II-1] | 8.47 nM | 8.5 nM | neither transporter P-gp substrates nor transporter BCRP substrates | 0.20 10^−6, cm/s | 5.52 10^−6, cm/s | 80.87% | – | 18.5 nM | – | 18.5 nM | 28.7 | – | 77.5% | 76.9% | 76.5% | –
